One series deals with SW1417. In words: 72 hr cell titer Glo proliferation assay, SW1417. In kind it is cell-based. The settings on record: Homo sapiens, single agent, SW1417, BRAFV600E. The method, then: (§1) All cell lines express the BRAFV600E protein, except MDST8 which expresses the BRAFV600K variant. Cells harboring known or putative activating mutations in the PI3Kα gene are marked with a (*) and cells with PTEN loss marked with a (#). Cell proliferation was measured in 72 hr cell titer Glo™ assays and all results shown are the result of at least triplicate measurements. […] Interactions were deemed synergistic when scores ≧2.0 where observed.
(Cellular ATP, detected with luciferase, serves as a proxy for viable cell number.)

A further series concerns COLO 205. Kind of series: 72 hr cell titer Glo proliferation assay, COLO 205. In kind it is cell-based. The settings on record: Homo sapiens, single agent, COLO 205, BRAFV600E. How it is done: as §1
Another series deals with LS411N. In words: 72 hr cell titer Glo proliferation assay, LS411N. In kind it is cell-based. As to conditions: Homo sapiens, LS-411N, single agent, BRAFV600E. How it is done: as §1
A further series relates to CL-34. In words: 72 hr cell titer Glo proliferation assay, CL-34. Format: cell-based. The settings on record: single agent, CL-34, BRAFV600E. How it is done:
as §1

The next series deals with MDST8. In words: 72 hr cell titer Glo proliferation assay, MDST8. Format: cell-based. As to conditions: single agent, MDST8, BRAFV600K. How it is done: as §1
The next series relates to HT-29. Kind of series: 72 hr cell titer Glo proliferation assay, HT-29. In kind it is cell-based. As to conditions: Homo sapiens, single agent, HT-29 (PI3Kα mutation), BRAFV600E. The method, then:
as §1

The subject of a further series is RKO. In words: 72 hr cell titer Glo proliferation assay, RKO. As to conditions: Homo sapiens, single agent, RKO (PI3Kα mutation), BRAFV600E. Format: cell-based. How it is done:
as §1

The subject of another series is SNU-C5. In words: 72 hr cell titer Glo proliferation assay, SNU-C5. In kind it is cell-based. The settings on record: single agent, SNU-C5 (PI3Kα mutation), BRAFV600E. How it is done:
as §1

Another series concerns OUMS-23. In words: 72 hr cell titer Glo proliferation assay, OUMS-23. In kind it is cell-based. As to conditions: single agent, OUMS-23 (PTEN loss), BRAFV600E. The method, then: as §1
In series [1] the test system is HT-29 human colorectal adenocarcinoma xenograft. In kind it is in vivo. As to conditions: for T/C: D29, 100×ΔT/ΔC for ΔT>0; for T/C / Mean Volume Day 1 / Mean Volume Day 29 / Mean Volume Change (ΔT): Cpd A 20 mg/kg po bid x 28, Cpd B 25 mg/kg po qd x 28, cetuximab 20 mg/kg ip biwk x 4, paclitaxel 30 mg/kg iv qod x 5; for Mean Volume Day 1: Day 1, start of dosing; for Mean Volume Change (ΔT): between D1 and D29; for Mean BW Nadir, day of nadir / Deaths NTR / Deaths TR / Regressions CR / Regressions PR: doses as in table; for Deaths NTR / Deaths TR / Regressions CR / Regressions PR: n = 10 per group; for Statistical Significance vs G1: vs Group 1 (vehicles), tumor volume change D1-D29. The method, then: A fresh suspension was prepared every two weeks and stored at room temperature.
A fresh suspension was prepared weekly and stored at 4° C.
Dosing solutions were freshly prepared for one group at a time.
Each agent was administered at a single dose level, individually and in dual and triple combinations, that were initiated on Day 1 (D1) in female nude mice with established subcutaneous tumors. […] Efficacy was determined from mean tumor volume changes between D1 and D29. Prism summarizes test results as not significant (ns) at P>0.05, significant (symbolized by “*”) at 0.01<P≦0.05, very significant (“**”) at 0.001<P≦0.01, and extremely significant (“***”) at P≦0.001.
For the purpose of statistical analyses, ΔTV, the difference in tumor volume between D1 (the start of dosing) and the endpoint day, was determined for every animal. […] The […] values are negative represent net tumor reduction for a group. […] Response to Combination Therapies (Groups 5-8)

Another series in a line: Rat ADME bioavailability. In kind it is in vivo. The settings on record: pre-clinical.
Another series concerns the target T1, BCRP (Homo sapiens, UniProt Q9UNQ0).
T1 sequence (Q9UNQ0 1-655): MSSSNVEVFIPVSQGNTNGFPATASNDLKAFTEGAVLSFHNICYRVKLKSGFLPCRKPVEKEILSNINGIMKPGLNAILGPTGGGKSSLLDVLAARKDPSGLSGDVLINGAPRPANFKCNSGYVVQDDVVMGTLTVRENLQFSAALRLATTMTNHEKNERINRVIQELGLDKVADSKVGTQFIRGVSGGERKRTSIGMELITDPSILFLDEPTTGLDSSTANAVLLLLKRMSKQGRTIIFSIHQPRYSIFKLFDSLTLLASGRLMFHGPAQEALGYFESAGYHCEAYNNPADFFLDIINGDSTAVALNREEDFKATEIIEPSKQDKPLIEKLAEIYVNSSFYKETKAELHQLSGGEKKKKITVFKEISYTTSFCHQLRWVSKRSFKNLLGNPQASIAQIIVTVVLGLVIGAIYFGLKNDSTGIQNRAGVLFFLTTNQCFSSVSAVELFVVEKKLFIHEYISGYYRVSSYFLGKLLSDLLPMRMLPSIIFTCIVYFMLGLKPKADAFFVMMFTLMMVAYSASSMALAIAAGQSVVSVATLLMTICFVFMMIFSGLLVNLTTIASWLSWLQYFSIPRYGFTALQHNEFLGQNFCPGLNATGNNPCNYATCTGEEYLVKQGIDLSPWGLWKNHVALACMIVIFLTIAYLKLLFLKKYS
In words: BCRP interaction. In kind it is in vitro ADME.

The target in another series is CYP3A4 (Homo sapiens, UniProt P08684). In words: CYP3A4 interaction. In kind it is in vitro ADME.
Series [2] relates to BRAF-mutant CRC-derived cell lines. In words: Proliferation of BRAF-mutant CRC-derived cell lines, panel summary. In kind it is cell-based. As to conditions: all cell lines tested. The method, then:
as §1

CYP3A4, sequence (P08684 whole entry): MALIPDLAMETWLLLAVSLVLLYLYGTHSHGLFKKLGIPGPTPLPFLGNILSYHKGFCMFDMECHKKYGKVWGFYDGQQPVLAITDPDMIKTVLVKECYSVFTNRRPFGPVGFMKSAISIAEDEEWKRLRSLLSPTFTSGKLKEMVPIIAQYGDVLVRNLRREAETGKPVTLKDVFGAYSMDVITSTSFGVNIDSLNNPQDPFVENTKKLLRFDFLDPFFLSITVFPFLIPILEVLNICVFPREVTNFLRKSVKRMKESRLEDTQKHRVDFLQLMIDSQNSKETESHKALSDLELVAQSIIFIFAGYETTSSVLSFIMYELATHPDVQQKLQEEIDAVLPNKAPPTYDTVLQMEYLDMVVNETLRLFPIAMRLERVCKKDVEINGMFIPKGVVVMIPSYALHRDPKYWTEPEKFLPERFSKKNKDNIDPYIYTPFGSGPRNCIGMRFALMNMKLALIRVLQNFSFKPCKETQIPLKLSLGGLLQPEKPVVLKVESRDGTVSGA

For `C#Cc1cccc(Nc2ncnc3cc(OCCOC)c(OCCOC)cc23)c1` [Erlotinib, erlotinib, reference compound], the IC50 with SW1417, in the series on COLO 205, with LS411N, with CL-34, with MDST8 and in the series with HT-29 was greater than 2.7 µM each time. The IC50 in the series on RKO, with SNU-C5 and in the series on OUMS-23 was greater than 2.7 µM in each case.

In the case of `Cc1nc(NC(=O)N2CCC[C@H]2C(N)=O)sc1-c1ccnc(C(C)(C)C(F)(F)F)c1` [Compound B, (S)-Pyrrolidine-1,2-dicarboxylic acid 2-amide 1-({4-methyl-5-[2-(2,2,2-trifluoro-1,1-dimethyl-ethyl)-pyridin-4-yl]-thiazol-2-yl}-amide)], in the series with SW1417, the 50% inhibitory concentration (IC50) was greater than 2.7 µM. Also, the IC50 in the series with COLO 205 was greater than 2.7 µM. In addition, in the series with LS411N, the concentration for half-maximal inhibition (IC50) was greater than 2.7 µM. Moreover, in the series with CL-34, the half-inhibitory concentration (IC50) was greater than 2.7 µM. Also, the half-inhibitory concentration (IC50) in the series on HT-29 is greater than 2.7 µM. Also, the IC50 with RKO is greater than 2.7 µM. Moreover, the IC50 in the series with SNU-C5 was greater than 2.7 µM. Besides, the IC50 in the series with OUMS-23 is greater than 2.7 µM. For the same compound, in series [1], the T/C is recorded as 57%, the “Mean Volume Day 1” value came out at 122 mm^3, the “Mean Volume Day 29” value was 660 mm^3 and the “Mean Volume Change (ΔT)” value was determined as 538 mm^3. Besides, in series [1], the “Mean BW Nadir, day of nadir” value is on record as “Day 8”; the “Deaths NTR” value was 0; the “Deaths TR” value was 0; the “Regressions CR” value is on record as 0. In addition, in series [1], the “Regressions PR” value was found to be 0 and the “Statistical Significance vs G1” value is “ns (not significant (ns) at P>0.05)”. The bioavailability in the series “Rat ADME bioavailability” was determined as 58%. Further, the BCRP substrate result at BCRP is “substrate of BCRP”. For the same compound, the CYP3A4 inhibition entry on CYP3A4 is recorded as “time dependent inhibitor of CYP3A4”.

As for `COC(=O)N[C@@H](C)CNc1nccc(-c2cn(C(C)C)nc2-c2cc(Cl)cc(NS(C)(=O)=O)c2F)n1` [Compound A], the 50% inhibitory concentration (IC50) with COLO 205 turned out to be 0.005 µM. The IC50 in the series with LS411N worked out at 0.018 µM. In the series with CL-34, the IC50 came out at 0.03 µM. Moreover, the IC50 with MDST8 was determined as 0.319 µM. The IC50 in the series with HT-29 was determined as 0.049 µM. For the same compound, in the series on SNU-C5, the IC50 was greater than 2.7 µM. In the series on OUMS-23, the IC50 is greater than 2.7 µM. Further, the “single agent activity on proliferation” value in series [2] was “significant single agent activity”. Moreover, in series [1], the T/C is 95%, the “Mean Volume Day 1” value was determined as 122 mm^3, the “Mean Volume Day 29” value was 1016 mm^3 and the “Mean Volume Change (ΔT)” value is 894 mm^3. In series [1], the “Mean BW Nadir, day of nadir” value is “Day 8”; the “Deaths NTR” value was found to be 0; the “Deaths TR” value amounted to 0; the “Regressions CR” value came out at 0. For the same compound, in series [1], the “Regressions PR” value is on record as 0 and the “Statistical Significance vs G1” value was “ns (not significant (ns) at P>0.05)”. In addition, on BCRP, the BCRP inhibition entry is recorded as “inhibitor of BCRP”. Moreover, the metabolism result at CYP3A4 was “mainly metabolized by CYP3A4”.

With `CC(=O)O[C@H]1C(=O)[C@@]2(C)[C@H]([C@H](OC(=O)c3ccccc3)[C@]3(O)C[C@H](OC(=O)[C@H](O)[C@@H](NC(=O)c4ccccc4)c4ccccc4)C(C)=C1C3(C)C)[C@]1(OC(C)=O)CO[C@@H]1C[C@@H]2O` [Paclitaxel, paclitaxel, reference compound], in [1], the T/C was 11%, the “Mean Volume Day 1” value is 122 mm^3, the “Mean Volume Day 29” value stood at 229 mm^3 and the “Mean Volume Change (ΔT)” value is reported as 107 mm^3. In series [1], the “Mean BW Nadir, day of nadir” value is reported as “Day 11”; the “Deaths NTR” value was 0; the “Deaths TR” value is listed as 0; the “Regressions CR” value is listed as 0. In addition, in [1], the “Regressions PR” value is on record as 0 and the “Statistical Significance vs G1” value is “** (very significant (“**”) at 0.001<P≦0.01)”.

The term IC50 denotes the concentration that gives 50% inhibition. A word on the T/C: it is the ratio of treated to control. One may read the bioavailability as the share of a dose that reaches the circulation, judged against a reference dose that is usually intravenous. Low values mean little systemic uptake, high ones much systemic uptake.

(Values after patent US9474754B2, “Pharmaceutical combinations comprising a B-RAF inhibitor, and EGFR inhibitor and optionally a PI3K-α inhibitor” (NOVARTIS AG, priority 2012, dated 2016).)
